In one experiment the target is human MLKL (full length) (Homo sapiens (Human), UniProt Q8NB16). As to the kind of experiment: KINOMEscan binding assay, human MLKL (full length). The conditions noted are these: KINOMEscan, Table 21; read-out: Human MLKL (full-length) (KD). The protocol: Binding affinity of the test compounds for human MLKL (full length), mouse MLKL (full length), human RIPK1 and human RIPK3 was determined using the KINOMEscan™ technology developed by DiscoverX (USA; http://www.discoverx.com). The assay was conducted according to manufacturer instructions.
human MLKL (full length), sequence (Q8NB16 whole entry): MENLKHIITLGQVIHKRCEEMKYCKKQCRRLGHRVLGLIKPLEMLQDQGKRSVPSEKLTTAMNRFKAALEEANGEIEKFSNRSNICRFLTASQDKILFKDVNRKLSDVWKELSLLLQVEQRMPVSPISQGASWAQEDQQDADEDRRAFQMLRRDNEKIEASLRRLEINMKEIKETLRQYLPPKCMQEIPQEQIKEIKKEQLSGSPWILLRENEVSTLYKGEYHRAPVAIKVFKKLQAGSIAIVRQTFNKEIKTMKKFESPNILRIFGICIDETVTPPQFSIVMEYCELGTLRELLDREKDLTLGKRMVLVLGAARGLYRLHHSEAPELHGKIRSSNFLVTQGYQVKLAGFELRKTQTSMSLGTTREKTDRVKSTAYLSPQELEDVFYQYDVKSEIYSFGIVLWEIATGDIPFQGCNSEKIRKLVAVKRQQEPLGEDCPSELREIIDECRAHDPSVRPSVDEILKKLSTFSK
Kinase assays. For most assays, kinase-tagged T7 phage strains were grown in parallel in 24-well blocks in an E. coli host derived from the BL21 strain. E. coli were grown to log-phase and infected with T7 phage from a frozen stock (multiplicity of infection=0.4) and incubated with shaking at 32° C. until lysis (90-150 minutes). The lysates were centrifuged (6,000×g) and filtered (0.2 μm) to remove cell debris. The remaining kinases were produced in HEK-293 cells and subsequently tagged with DNA for qPCR detection. […] The liganded beads were blocked with excess biotin and washed with blocking buffer (SeaBlock (Pierce), 1% BSA, 0.05% Tween 20, 1 mM DTT) to remove unbound ligand and to reduce non-specific phage binding. […] All reactions were performed in polypropylene 384-well plates in a final volume of 20 μL. […] The kinase concentration in the eluates was measured by qPCR.
An 11-point 3-fold serial dilution of each test compound was prepared in 100% DMSO at 100× final test concentration and subsequently diluted to 1× in the assay (final DMSO concentration=1%). Most Kos were determined using a compound top concentration=30,000 nM.
KD for each test compound was calculated with a standard dose-response curve using the Hill equation (equation (1)): […]
The Hill Slope was set to −1.
Curves were fitted using a non-linear least square fit with the Levenberg-Marquardt algorithm.

The target in another experiment is human RIPK3 (Homo sapiens (Human), UniProt Q9Y572). Kind of experiment: KINOMEscan binding assay, human RIPK3. The conditions noted are these: Table 21. The gist of the method: (§1)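 In this assay, compounds displace DNA- or phage-tagged kinase from an immobilized ligand, and eluted kinase is quantified by qPCR.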
human RIPK3, sequence (Q9Y572 whole entry): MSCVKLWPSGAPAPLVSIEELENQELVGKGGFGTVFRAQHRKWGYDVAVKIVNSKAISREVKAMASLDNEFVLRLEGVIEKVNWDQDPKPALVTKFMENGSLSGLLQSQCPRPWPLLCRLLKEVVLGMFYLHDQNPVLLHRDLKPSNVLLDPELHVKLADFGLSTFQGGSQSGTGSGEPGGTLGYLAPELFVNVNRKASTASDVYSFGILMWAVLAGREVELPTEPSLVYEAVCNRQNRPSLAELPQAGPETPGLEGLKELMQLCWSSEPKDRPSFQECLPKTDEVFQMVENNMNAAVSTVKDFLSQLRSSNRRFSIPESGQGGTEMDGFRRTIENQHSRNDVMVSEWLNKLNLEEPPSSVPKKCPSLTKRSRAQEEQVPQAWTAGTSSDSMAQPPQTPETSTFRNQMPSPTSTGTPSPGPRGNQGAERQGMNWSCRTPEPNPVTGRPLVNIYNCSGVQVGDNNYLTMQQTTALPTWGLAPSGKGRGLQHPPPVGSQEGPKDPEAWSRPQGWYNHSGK
A further experiment concerns the target human RIPK1 (Homo sapiens (Human), UniProt Q13546). As to the kind of experiment: KINOMEscan binding assay, human RIPK1. The conditions noted are these: Table 21. The gist of the method:
as §1

For 17 compounds, Kd results are on record in patent publication US20250115598A1 (Anaxis Pharma Pty Ltd, priority 2021, published 2025).

human RIPK1, sequence (Q13546 whole entry): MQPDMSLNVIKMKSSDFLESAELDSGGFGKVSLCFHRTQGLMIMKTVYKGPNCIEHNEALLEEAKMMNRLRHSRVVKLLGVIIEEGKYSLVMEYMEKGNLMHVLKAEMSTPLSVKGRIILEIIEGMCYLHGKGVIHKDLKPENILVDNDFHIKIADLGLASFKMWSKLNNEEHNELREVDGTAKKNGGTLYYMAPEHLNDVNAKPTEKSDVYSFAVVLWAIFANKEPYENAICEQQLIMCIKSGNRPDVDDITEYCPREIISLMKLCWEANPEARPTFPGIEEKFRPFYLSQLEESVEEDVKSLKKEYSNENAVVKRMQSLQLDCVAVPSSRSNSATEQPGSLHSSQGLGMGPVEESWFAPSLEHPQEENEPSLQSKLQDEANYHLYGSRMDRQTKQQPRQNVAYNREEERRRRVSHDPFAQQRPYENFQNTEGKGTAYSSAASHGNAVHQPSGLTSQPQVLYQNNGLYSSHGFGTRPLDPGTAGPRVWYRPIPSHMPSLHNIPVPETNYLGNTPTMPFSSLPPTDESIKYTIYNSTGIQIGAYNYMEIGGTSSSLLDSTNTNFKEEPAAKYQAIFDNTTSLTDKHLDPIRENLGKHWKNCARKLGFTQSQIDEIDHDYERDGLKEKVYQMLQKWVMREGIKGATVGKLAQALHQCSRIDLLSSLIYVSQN

Consider `C[C@H](Oc1cc(-c2nn(C)c3c(-c4ccc5c(c4)n(C)c(=O)n5C)cnc(N)c23)ccc1NS(=O)(=O)C(F)F)c1ccc(F)cc1` [Compound 161, (S)-N-(4-(4-amino-7-(1,3-dimethyl-2-oxo-2,3-dihydro-1H-benzo[d]imidazol-5-yl)-1-methyl-1H-pyrazolo[4,3-c]pyridin-3-yl)-2-(1-(4-fluorophenyl)ethoxy)phenyl)-1,1-difluoromethanesulfonamide], for which the Kd was under 0.001 µM at human MLKL (full length), over 10 µM on human RIPK3 and over 10 µM on human RIPK1.

In the case of `C[C@H](Oc1cc(-c2nn(C)c3ccnc(N)c23)ccc1NS(=O)(=O)C(F)F)c1ccc(F)cc1` [Compound 17, N-(4-{4-amino-1-methyl-1H-pyrazolo[4,3-c]pyridin-3-yl}-2-[(1S)-1-(4-fluorophenyl)ethoxy]phenyl)-1,1-difluoromethanesulfonamide], the Kd at human MLKL (full length) is under 0.001 µM; on human RIPK3, over 10 µM; on human RIPK1 it was over 10 µM.

With `C[C@H](Oc1cc(-c2cnn3c(-c4cnn(C)c4)cnc(N)c23)ccc1NS(=O)(=O)C(F)F)c1ccc(F)cc1` [Compound 35, (S)-N-(4-(4-amino-7-(1-methyl-1H-pyrazol-4-yl)pyrazolo[1,5-a]pyrazin-3-yl)-2-(1-(4-fluorophenyl)ethoxy)phenyl)-1,1-difluoromethane-sulfonamide], the Kd at human MLKL (full length) was under 0.001 µM; on human RIPK3, over 10 µM; on human RIPK1 it was over 10 µM.

For the compound `[2H]C([2H])([2H])N1CCC(n2cc(-c3cnc(N)c4c(-c5ccc(NS(=O)(=O)C(F)F)c(O[C@@H](C)c6ccc(F)cc6)c5)nn(C)c34)cn2)CC1` [Compound 103, (S)-N-(4-(4-amino-1-methyl-7-(1-(1-(methyl-d3)piperidin-4-yl)-1H-pyrazol-4-yl)-1H-pyrazolo[4,3-c]pyridin-3-yl)-2-(1-(4-fluorophenyl)ethoxy)phenyl)-1,1-difluoromethanesulfonamide], the equilibrium dissociation constant (Kd) is under 0.001 µM at human MLKL (full length), over 10 µM at human RIPK3 and over 10 µM on human RIPK1.

On to `CC(C)N1CC(n2cc(-c3cnc(N)c4c(-c5ccc(NS(=O)(=O)C(F)F)c(O[C@@H](C)c6ccc(F)cc6)c5)nn(C)c34)cn2)C1` [Compound 76, (S)-N-(4-(4-amino-7-(1-(1-isopropylazetidin-3-yl)-1H-pyrazol-4-yl)-1-methyl-1H-pyrazolo[4,3-c]pyridin-3-yl)-2-(1-(4-fluorophenyl)ethoxy)phenyl)-1,1-difluoromethanesulfonamide], for which the Kd on human MLKL (full length) was under 0.001 µM; on human RIPK3, over 10 µM; at human RIPK1, over 10 µM.

In the case of `C[C@H](Oc1cc(-c2nn(C)c3c(-c4cnn(CCN(C)C)c4)cnc(N)c23)ccc1NS(=O)(=O)C(F)F)c1ccc(F)cc1` [Compound 100, (S)-N-(4-(4-amino-7-(1-(2-(dimethylamino)ethyl)-1H-pyrazol-4-yl)-1-methyl-1H-pyrazolo[4,3-c]pyridin-3-yl)-2-(1-(4-fluorophenyl)ethoxy)phenyl)-1,1-difluoromethanesulfonamide], the Kd on human MLKL (full length) was under 0.001 µM; on human RIPK3, over 10 µM; on human RIPK1, over 10 µM.

`C[C@H](Oc1cc(-c2nn(C)c3c(-c4ccc5[nH]c(=O)n(C)c5c4)cnc(N)c23)ccc1NS(=O)(=O)C(F)F)c1ccc(F)cc1` [Compound 160, (S)-N-(4-(4-amino-1-methyl-7-(3-methyl-2-oxo-2,3-dihydro-1H-benzo[d]imidazol-5-yl)-1H-pyrazolo[4,3-c]pyridin-3-yl)-2-(1-(4-fluorophenyl)ethoxy)phenyl)-1,1-difluoromethanesulfonamide]: the figures for the dissociation constant Kd at human MLKL (full length), on human RIPK3 and at human RIPK1 were under 0.001 µM, over 10 µM and over 10 µM, respectively.

Take `COCCn1cc(-c2cnc(N)c3c(-c4ccc(NS(=O)(=O)C(F)F)c(O[C@@H](C)c5ccc(F)cc5)c4)nn(C)c23)cn1` [Compound 29, (S)-N-(4-(4-amino-7-(1-(2-methoxyethyl)-1H-pyrazol-4-yl)-1-methyl-1H-pyrazolo[4,3-c]pyridin-3-yl)-2-(1-(4-fluorophenyl)ethoxy)phenyl)-1,1-difluoromethanesulfonamide]: the Kd at human MLKL (full length) was under 0.001 µM; at human RIPK3 it was over 10 µM; on human RIPK1, over 10 µM.

Turning to `Cn1nc(-c2ccc(NS(=O)(=O)C(F)F)c(OCc3cccc(Cl)c3)c2)c2c(N)ncc(-c3cnn(C4CCOCC4)c3)c21` [Compound 130, N-(4-(4-amino-1-methyl-7-(1-(tetrahydro-2H-pyran-4-yl)-1H-pyrazol-4-yl)-1H-pyrazolo[4,3-c]pyridin-3-yl)-2-((3-chlorobenzyl)oxy)phenyl)-1,1-difluoromethane-sulfonamide], the values for the Kd at human MLKL (full length), on human RIPK3 and at human RIPK1 were under 0.001 µM, over 10 µM and over 10 µM, respectively.

In the case of `C[C@H](Oc1cc(-c2nn(C)c3c(-c4cnn(CCN5CC(C)(C)C5)c4)cnc(N)c23)ccc1NS(=O)(=O)C(F)F)c1ccc(F)cc1` [Compound 75, (S)-N-(4-(4-amino-7-(1-(2-(3,3-dimethylazetidin-1-yl)ethyl)-1H-pyrazol-4-yl)-1-methyl-1H-pyrazolo[4,3-c]pyridin-3-yl)-2-(1-(4-fluorophenyl)ethoxy)phenyl)-1,1-difluoromethanesulfonamide], the values for the equilibrium dissociation constant (Kd) on human MLKL (full length), at human RIPK3 and at human RIPK1 were under 0.001 µM, over 10 µM and over 10 µM, respectively.

In the case of `COc1ccc(-c2cnc(N)c3c(-c4ccc(NS(=O)(=O)C(F)F)c(O[C@@H](C)c5ccc(F)cc5)c4)nn(C)c23)cn1` [Compound 28, (S)-N-(4-(4-amino-7-(6-methoxypyridin-3-yl)-1-methyl-1H-pyrazolo[4,3-c]pyridin-3-yl)-2-(1-(4-fluorophenyl)ethoxy)phenyl)-1,1-difluoromethanesulfonamide], the Kd at human MLKL (full length) was under 0.001 µM; on human RIPK3, over 10 µM; at human RIPK1, over 10 µM.

`COCC(Oc1cc(-c2nn(C)c3c(-c4cnn(C5CCOCC5)c4)cnc(N)c23)ccc1NS(=O)(=O)C(F)F)c1ccc(F)cc1` (racemic) [Compound 102, N-(4-(4-amino-1-methyl-7-(1-(tetrahydro-2H-pyran-4-yl)-1H-pyrazol-4-yl)-1H-pyrazolo[4,3-c]pyridin-3-yl)-2-(1-(4-fluorophenyl)-2-methoxyethoxy)phenyl)-1,1-difuoromethane-sulfonamide]: the dissociation constant Kd is under 0.001 µM at human MLKL (full length), over 10 µM on human RIPK3 and over 10 µM at human RIPK1.

Take `CC#Cc1cnc(N)c2c(-c3ccc(NS(=O)(=O)C(F)F)c(O[C@@H](C)c4ccc(F)cc4)c3)nn(C)c12` [Compound 56, (S)-N-(4-(4-amino-1-methyl-7-(prop-1-yn-1-yl)-1H-pyrazolo[4,3-c]pyridin-3-yl)-2-(1-(4-fluorophenyl)ethoxy)phenyl)-1,1-difluoromethane-sulfonamide]: the Kd is under 0.001 µM on human MLKL (full length), over 10 µM at human RIPK3 and over 10 µM on human RIPK1.

As for `Cn1nc(-c2ccc(NS(=O)(=O)C(F)F)cc2OCc2cccc(F)c2)c2c(N)ncc(-c3cnn(C4CCOCC4)c3)c21` [Compound 135, N-(4-(4-amino-1-methyl-7-(1-(tetrahydro-2H-pyran-4-yl)-1H-pyrazol-4-yl)-1H-pyrazolo[4,3-c]pyridin-3-yl)-3-((3-fluorobenzyl)oxy)phenyl)-1,1-difluoro-methanesulfonamide], the values for the Kd at human MLKL (full length), on human RIPK3 and at human RIPK1 were under 0.001 µM, over 10 µM and over 10 µM, respectively.

As to `Cn1nc(-c2ccc(NS(=O)(=O)C(F)F)c(OCc3ccc(Cl)c(F)c3)c2)c2c(N)ncc(-c3cnn(C4CCOCC4)c3)c21` [Compound 132, N-(4-(4-amino-1-methyl-7-(1-(tetrahydro-2H-pyran-4-yl)-1H-pyrazol-4-yl)-1H-pyrazolo[4,3-c]pyridin-3-yl)-2-((4-chloro-3-fluoro-benzyl)oxy)phenyl)-1,1-difluoromethane-sulfonamide], the Kd at human MLKL (full length) is under 0.001 µM; on human RIPK3, over 10 µM; at human RIPK1, over 10 µM.

As for `Nc1n[nH]c2nccc(-c3ccc(NS(=O)(=O)C(F)F)c(OCc4ccc(F)cc4)c3)c12` [Compound 66, N-(4-(3-Amino-1H-pyrazolo[3,4-b]pyridin-4-yl)-2-((4-fluorophenyl)methoxy)phenyl)-1,1-difluoromethanesulfonamide], the Kd on human MLKL (full length) is under 0.001 µM; at human RIPK3, over 10 µM; at human RIPK1 it was over 10 µM.

As for `C[C@H](Oc1cc(-c2nn(C)c3c(-c4ccccc4)cnc(N)c23)ccc1NS(=O)(=O)C(F)F)c1ccc(F)cc1` [Compound 86, (S)-N-(4-(4-amino-1-methyl-7-phenyl-1H-pyrazolo[4,3-c]pyridin-3-yl)-2-(1-(4-fluorophenyl)ethoxy)phenyl)-1,1-difluoromethanesulfonamide], the Kd on human RIPK3 and at human RIPK1 was over 10 µM in each case.
